Experimental data published in patent US6803186B2, “Compositions and methods for increasing amino acid absorption in mammals” (The IAMS Company, priority 2001, dated 2004).
“And” between values parts separate entries of the source, which are not always exact repeats. Equal entries are not always repeated. Peptide text beside a SMILES is read from it.

T1: canine PepT1 (cPepT1) (Canis lupus familiaris, UniProt Q8WMX5)
T1 construct: endogenous in cells; host or cells: MDCK (Madin-Darby Canine Kidney) cells, whole-cell [3H]-GlySar uptake
T1 sequence (Q8WMX5 1-708): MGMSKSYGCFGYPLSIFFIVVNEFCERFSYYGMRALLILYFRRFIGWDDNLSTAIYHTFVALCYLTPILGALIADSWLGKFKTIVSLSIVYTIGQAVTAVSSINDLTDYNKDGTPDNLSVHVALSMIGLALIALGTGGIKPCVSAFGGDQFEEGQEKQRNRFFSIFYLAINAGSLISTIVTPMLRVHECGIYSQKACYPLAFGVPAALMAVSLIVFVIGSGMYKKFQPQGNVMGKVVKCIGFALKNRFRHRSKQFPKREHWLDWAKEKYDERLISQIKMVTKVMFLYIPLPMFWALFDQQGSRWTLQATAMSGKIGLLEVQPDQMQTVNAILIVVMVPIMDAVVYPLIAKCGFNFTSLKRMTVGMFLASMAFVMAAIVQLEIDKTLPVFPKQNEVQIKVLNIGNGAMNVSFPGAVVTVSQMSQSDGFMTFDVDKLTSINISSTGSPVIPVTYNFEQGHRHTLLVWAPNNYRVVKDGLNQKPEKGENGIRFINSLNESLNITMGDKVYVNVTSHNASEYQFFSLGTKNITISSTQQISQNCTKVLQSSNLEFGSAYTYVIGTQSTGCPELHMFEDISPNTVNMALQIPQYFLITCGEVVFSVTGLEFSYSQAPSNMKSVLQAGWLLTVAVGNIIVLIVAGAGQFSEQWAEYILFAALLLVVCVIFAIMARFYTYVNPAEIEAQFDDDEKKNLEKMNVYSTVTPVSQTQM

B1: canine PepT1 (cPepT1) (Canis lupus familiaris) (protein)
chain: T1 sequence (Q8WMX5 1-708)
notes: endogenous in cells; host or cells: MDCK (Madin-Darby Canine Kidney) cells, whole-cell [3H]-GlySar uptake

Tests used:
canine PepT1 (cPepT1) [1] = molecular target: T1, canine PepT1 (cPepT1); assay: Inhibition of H+-dependent 100 μM GlySar uptake by MDCK cells cultured in LHM; assay type: cell-based; settings: for % inhibition of H+-dependent GlySar uptake: 1 mM extracellular substrate, 100 μM GlySar, pH 6.0, 30 min
Experimental: Characteristic hallmarks of low affinity H^+/peptide cotransport activity, classically defined using membrane vesicles of several species, and more recently by functional expression studies using human, rat, and rabbit PepT1 cDNA, is the recognition of some, but not all, β-lactam antibiotics. […] To determine whether MDCK cPepT1 activity shared these functional features, the uptake of 100 μM GlySar in the absence and presence of pH 7.5 and pH 6.0 buffer, and, in pH 6.0 buffers, the presence of 1 mM additional GlySar (self-inhibitor control), 3 mM Penicillin-G, 30 μM cefadroxil, or 3 mM cefadroxil was compared (FIG. 13).
Other hallmarks of PepT1 function are the decreased ability of Gly-containing peptides to inhibit GlySar, in proportion to their length, and sensitivity to inhibition by carnosine (β-Ala-His).
Accordingly, the following general regimen was used to perform a series of experiments that evaluated the relative abilities of candidate di-(primarily) and tri-peptides to inhibit GlySar uptake by endogenously expressed cPepT1 in MDCK cells:
1. Sixty thousand cells/well were plated into collagen-coated 24-well trays and cultured at 37° C. in an atmosphere of 95% air/5% CO2 in DMEM/10% FCS that contained antibiotics for 1 day.
2. The media was removed and cells were cultured in LHM/10% FCS/antibiotics for 1 day.
3. The media was removed and cells cultured in LHM/10% FCS (no antibiotics) for 20 h.
4. The media was removed and cells cultured for 30 min in air at 37° C. in depletion medium (25 mM Hepes/Tris (pH 7.5), 140 mM NaCl, 5.4 mM KCl, 1.8 mM CaCl2, 0.8 mM MgSO4, and 5 mM glucose, to normalize intracellular nutrient pools.
(§1) 5. Transport was initiated by replacing depletion medium with uptake medium (depletion medium adjusted to pH 6.0 or kept at pH 7.4) that contained 100 μM GlySar (at a specific activity of 5 μCi/mL, with [^3H]-GlySar supplying 2.88% of total GlySar substrate) and (or) 1 mM of inhibiting peptide.
In total, 23 inhibitory peptides and 2 drug compounds were screened using this protocol.

MDCK cells = assay: Inhibition of H+-independent GlySar uptake by MDCK cells; assay type: cell-based, canine; settings: 1 mM peptide, 100 μM GlySar
Experimental: as §1

canine PepT1 (cPepT1) [2] = molecular target: T1, canine PepT1 (cPepT1); assay: Competitor substrate inhibition of [3H]-GlySar uptake by confluent MDCK cells (Example 1); assay type: cell-based; settings: for inhibition of H+-dependent uptake of GlySar: 10 mM competitor; for Glysylsarcosine uptake: extracellular pH 6.0, 10 mM competitor, 2.88 [3H]-glycylsarcosine, 30 min; for % inhibition of pH 6.0 uptake: pH 6.0, 10 mM competitor
Experimental: (§2) Potential expression of PepT1 transport activity (H^+-dependent, dipeptide inhibitable, low-affinity dipeptide transport) by confluent MDCK cells was evaluated using whole-cell transport techniques and glycylsarcosine (GlySar) as a model dipeptide substrate. Cells were seeded at 60,000 cells/cm^2 into 24-well trays that had been coated with rat tail collagen or poly-L-lysine and cultured ([…]:5% CO2 at 37° C.) for 3 d in media consisting of Dulbecco's Modified Eagle Medium/10% fetal calf serum/1% antimicrobial antibacterial medium. Absorption (pmols/mg protein) of [^3H]-glycyl-L-sarcosine (GlySar, 6 mCi/mL, Moravek Biochemicals, Brea, Calif.) was determined using the 24-well cluster tray method and representative scintillation counting. Before transport, cells were incubated at 37° C. for 30 min in 25 mM Hepes/Tris (pH 7.5), 140 mM NaCl, 5.4 mM KCl, 1.8 mM CaCl2, 0.8 mM MgSO4, and 5 mM glucose (uptake buffer) to normalize intracellular amino acid and peptide pools. Transport was initiated by the addition of 0.25 mL of uptake buffer that contained 2.88 μm GlySar. After 30 min of uptake at 37° C., transport was terminated by rapid washing of cells with 4×2 mL 4° C. uptake buffer. Cellular protein was precipitated with 10% trichloroacetic acid and the supernatant recovered and counted to determine radioactivity (^3H) content. Cellular protein was then solubilized in 0.2 N NaOH and 0.2% SDS and quantified by the Lowry procedure, using bovine serum albumin as a standard. The amount of H^+-dependent GlySar absorbed was calculated as the difference between uptake in pH 6.0 and pH 7.5 uptake buffers. The amount of competitor substrate-inhibitable GlySar uptake was calculated as the quotient of GlySar uptake in the absence and presence of 10 mM competitor substrate (dipeptide or amino acid) multiplied by 100%.

canine PepT1 (cPepT1) [3] = molecular target: T1, canine PepT1 (cPepT1); assay: Inhibition of H+-dependent 100 μM GlySar uptake by MDCK cells cultured in LHM; assay type: cell-based; settings: 100 μM extracellular substrate
[4] = substrate: CN(CC(=O)O)C(=O)CN; assay: Characterization of GlySar uptake by MDCK cells (Km, pH gradient, time course); assay type: cell-based, canine; settings: 37.0 °C
Experimental: as §2, with “Transport was initiated by the addition of 0.25 mL of uptake buffer that contained 2.88 μm GlySar. After 30 min of uptake at 37° C., transport was terminated by rapid washing of cells with 4×2 mL 4° C. uptake buffer.” left out
To preliminarily characterize the kinetic parameters of peptide transport by MDCK cells, the uptake of GlySar in media that contained pH 6.0 and 0.00064, 0.0025, 0.010, 0.04, 0.160, 0.640, 2.56, or 10.2 mM of GlySar was measured (FIG. 6). […]
To confirm that H^+-dependent GlySar uptake was saturable, and therefore mediated, the uptake of GlySar from pH 6.0 and 7.4 uptake buffers containing 0.025, 0.1, 0.4, 1.6, 6.4, or 25.6 mM GlySar was evaluated (FIG. 12). […]

| Molecule | % inhibition of H+-dependent GlySar uptake (canine PepT1 (cPepT1) [1]) | inhibition of H+-independent GlySar uptake (MDCK cells) | Glysylsarcosine uptake (canine PepT1 (cPepT1) [2]; collagen-coated trays) | Glysylsarcosine uptake (canine PepT1 (cPepT1) [2]; poly-L-lysine-coated trays) | % inhibition of H+-dependent GlySar uptake (canine PepT1 (cPepT1) [3]) | other results |
| --- | --- | --- | --- | --- | --- | --- |
| NCC(=O)O [Gly] | 5.0% | – | – | – | – | – |
| CC(C)C[C@H](N)C(=O)N[C@@H](Cc1c[nH]c2ccccc12)C(=O)O [LeuTrp] | 113% | 46% | 7.68 ± 1.37 pmol 30 min^−1 mg^−1 protein | 5.50 ± 0.58 pmol 30 min^−1 mg^−1 protein | 58% | inhibition of H+-dependent uptake of GlySar (canine PepT1 (cPepT1) [2]; cells grown on collagen): 88%; inhibition of H+-dependent uptake of GlySar (canine PepT1 (cPepT1) [2]; cells grown on poly-lysine): 87%; % inhibition of pH 6.0 uptake (canine PepT1 (cPepT1) [2]; collagen-coated trays): 11.7%; % inhibition of pH 6.0 uptake (canine PepT1 (cPepT1) [2]; poly-L-lysine-coated trays): 13.0% |
| CC(C)C[C@H](N)C(=O)O [Leucine] | neither Leu nor Trp significantly influenced | – | 63.0 ± 4.00 pmol 30 min^−1 mg^−1 protein | 41.93 ± 2.70 pmol 30 min^−1 mg^−1 protein | – | – |
| CC1(C)S[C@@H]2[C@H](NC(=O)Cc3ccccc3)C(=O)N2[C@H]1C(=O)O [Penicillin-G] | 0% | – | – | – | – | inhibition of H+-dependent GlySar uptake (canine PepT1 (cPepT1) [1]; 3 mM Penicillin-G, 100 μM GlySar (FIG. 13)): not inhibited |
| N[C@@H](Cc1c[nH]c2ccccc12)C(=O)O [Trp, tryptophan] | neither Leu nor Trp significantly influenced | – | – | – | – | – |
| CC(C)C[C@H](NC(=O)[C@@H](N)Cc1c[nH]c2ccccc12)C(=O)O [TrpLeu] (H-Trp-Leu-OH; N-terminus and C-terminus assumed) | 117% and 116% | 36% | 5.21 ± 0.39 pmol 30 min^−1 mg^−1 protein | 3.44 ± 0.27 pmol 30 min^−1 mg^−1 protein | 92% and 94% | inhibition of H+-dependent uptake of GlySar (canine PepT1 (cPepT1) [2]; cells grown on collagen): 92%; inhibition of H+-dependent uptake of GlySar (canine PepT1 (cPepT1) [2]; cells grown on poly-lysine): 92%; % inhibition of pH 6.0 uptake (canine PepT1 (cPepT1) [2]; collagen-coated trays): 8.0%; % inhibition of pH 6.0 uptake (canine PepT1 (cPepT1) [2]; poly-L-lysine-coated trays): 8.1% |
| N[C@@H](Cc1c[nH]c2ccccc12)C(=O)N[C@@H](Cc1c[nH]c2ccccc12)C(=O)O [TrpTrp] (H-Trp-Trp-OH; N-terminus and C-terminus assumed) | – | about 22% | – | – | 62% | – |
| MetGlyMetMet (MGMM; OTHER INFORMATION: tetrapeptide) | 50% | – | – | – | – | – |
| [Gly]4 (GGGG) [positive control (model) substrate] | 19% | – | – | – | – | – |
| B1 | – | – | – | – | – | Km ([4]; other: MDCK cells seeded at 60K/well grown in LHM (FIG. 12)): 1100 µM and 1000 µM; Km ([4]; other: MDCK cells, only pH 6.0 uptake buffer, pH 6.0): 1100 µM; Km ([4]; other: confluent MDCK cells, pH 6.0 media, graphical evaluation (FIG. 6), pH 6.0): 4000 µM |
